Results: patent US10143746B2, “Immunomodulators” (BRISTOL-MYERS SQUIBB COMPANY, priority 2016, dated 2018)
Where a SMILES comes first, the peptide text is derived from it. Bridges are numbered along the chain shown (N, C = ends). [ ]: non-standard residue; d: D form. Bta = N[C@@H](Cc1csc2ccccc12)C(=O)O; Hyp = O=C(O)[C@@H]1C[C@@H](O)CN1; NMeNle = CCCC[C@H](NC)C(=O)O; NMeA = CN[C@@H](C)C(=O)O

Target: PD-1-Ig binding to PD-L1-TVMV-His (PD-L1-His) (Homo sapiens (Human), UniProt Q9NZQ7)
Assay: PD-1/PD-L1 Homogenous Time-Resolved Fluorescence (HTRF) binding assay (PD-1-Ig/PD-L1-His)
Settings: PD-1-Ig (20 nM)/PD-L1-His (10 nM)
Description: Methods for Testing the Ability of Macrocyclic Compounds to Compete for the Binding of PD-1 to PD-L1 Using Homogenous Time-Resolved Fluorescence (HTRF) Binding Assays
The ability of the macrocyclic compounds of the present disclosure to bind to PD-L1 was investigated using a PD-1/PD-L1 Homogenous Time-Resolved Fluorescence (HTRF) binding assay.
Homogenous Time-Resolved Fluorescence (HTRF) Assays of Binding of Soluble PD-1 to Soluble PD-L1. Soluble PD-1 and soluble PD-L1 refers to proteins with carboxyl-end truncations that remove the transmembrane-spanning regions and are fused to heterologous sequences, specifically the Fc portion of the human immunoglobulin G sequence (Ig) or the hexahistidine epitope tag (His). All binding studies were performed in an HTRF assay buffer consisting of dPBS supplemented with 0.1% (w/v) bovine serum albumin and 0.05% (v/v) Tween-20. For the PD-1-Ig/PD-L1-His binding assay, inhibitors were pre-incubated with PD-L1-His (10 nM final) for 15 m in 4 μl of assay buffer, followed by addition of PD-1-Ig (20 nM final) in 1 μl of assay buffer and further incubation for 15 m. PD-L1 fusion proteins from either human, cynomologous macaques, mouse, or other species were used. HTRF detection was achieved using europium crypate-labeled anti-Ig monoclonal antibody (1 nM final) and allophycocyanin (APC) labeled anti-His monoclonal antibody (20 nM final). Antibodies were diluted in HTRF detection buffer and 5 μl was dispensed on top of binding reaction. […] Additional binding assays were established between PD-1-Ig/PD-L2-His (20 and 5 nM, respectively), CD80-His/PD-L1-Ig (100 and 10 nM, respectively) and CD80-His/CTLA4-Ig (10 and 5 nM, respectively).
Recombinant Proteins. […] Human PD-L2-His (Sino Biologicals), CD80-His (Sino Biologicals), CTLA4-Ig (RnD Systems) were all obtained through commercial sources.

PD-1-Ig binding to PD-L1-TVMV-His (PD-L1-His), sequence (Q9NZQ7 other isoform, or with tags, fused parts or gaps): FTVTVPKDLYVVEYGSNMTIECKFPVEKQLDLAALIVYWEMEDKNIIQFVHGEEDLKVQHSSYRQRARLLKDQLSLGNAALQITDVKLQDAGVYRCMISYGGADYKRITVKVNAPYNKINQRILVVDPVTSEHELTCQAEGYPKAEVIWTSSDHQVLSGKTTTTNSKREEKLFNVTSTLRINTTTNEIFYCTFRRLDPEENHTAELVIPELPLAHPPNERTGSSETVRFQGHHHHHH

Row | SMILES | IC50 (range classes) [nM] | IC50 (numeric values) [nM]
1 | CCCC[C@H]1C(=O)N(C)[C@@H](CCCC)C(=O)N[C@H]2CCC(=O)NCCCC[C@H](NC(=O)[C@H](Cc3c[nH]c4ccccc34)NC(=O)[C@@H]3CCCN3C(=O)[C@H](CC(C)C)NC(=O)[C@H](Cc3c[nH]cn3)NC(=O)[C@@H]3CCCN3C(=O)[C@H](CC(N)=O)NC(=O)[C@H](C)N(C)C(=O)[C@H](Cc3ccc(O)cc3)NC(=O)CSC[C@@H](C(=O)NCC(N)=O)NC2=O)C(=O)N[C@@H](Cc2csc3ccccc23)C(=O)N1C [Example 5004] ({CH2CO}-Y[NMeA]NPHLPWK[Bta][NMeNle][NMeNle]ECG-NH2; lactam 9-13; thioether N-14) | 3 to 9.9 | –
2 | CCCC[C@H]1C(=O)N(C)[C@@H](CCCC)C(=O)N[C@H]2CCC(=O)NCCCC[C@H](NC(=O)[C@H](Cc3c[nH]c4ccccc34)NC(=O)[C@@H]3C[C@@H](O)CN3C(=O)[C@@H]3CCCCNC(=O)C[C@H](NC(=O)[C@H](C)N(C)C(=O)[C@H](Cc4ccc(O)cc4)NC(=O)CSC[C@@H](C(=O)NCC(N)=O)NC2=O)C(=O)N2CCC[C@H]2C(=O)N[C@@H](Cc2c[nH]cn2)C(=O)N3)C(=O)N[C@@H](Cc2c[nH]c3ccccc23)C(=O)N1C [Example 5005] ({CH2CO}-Y[NMeA]DPHK[Hyp]WKW[NMeNle][NMeNle]ECG-NH2; lactam 3-6, 9-13; thioether N-14) | 10 to 99 | –
3 | CCCC[C@H]1C(=O)N(C)[C@@H](CCCC)C(=O)N[C@@H](CCC(N)=O)C(=O)N[C@H](C(=O)NCC(N)=O)CSCC(=O)N[C@@H](Cc2ccc(O)cc2)C(=O)N[C@H](C)C(=O)N[C@H]2CC(=O)NCCCC[C@H](NC(=O)[C@H](Cc3c[nH]cn3)NC(=O)[C@@H]3CCCN3C2=O)C(=O)N2C[C@H](O)C[C@H]2C(=O)N[C@@H](Cc2c[nH]c3ccccc23)C(=O)N[C@@H](CO)C(=O)N[C@@H](Cc2c[nH]c3ccccc23)C(=O)N1C [Example 5006] ({CH2CO}-Y[dA]DPHK[Hyp]WSW[NMeNle][NMeNle]QCG-NH2; lactam 3-6; thioether N-14) | 10 to 99 | –
4 | CCCC[C@H]1C(=O)N(C)[C@@H](CCCC)C(=O)N[C@H]2CCC(=O)NCCCC[C@H](NC(=O)[C@H](Cc3c[nH]c4ccccc34)NC(=O)[C@@H]3C[C@@H](O)CN3C(=O)[C@H](CCC(N)=O)NC(=O)[C@H](Cc3c[nH]cn3)NC(=O)[C@@H]3CCCN3C(=O)[C@H](CC(N)=O)NC(=O)[C@@H](C)NC(=O)[C@H](Cc3ccc(O)cc3)NC(=O)CSC[C@@H](C(=O)NCC(N)=O)NC2=O)C(=O)N[C@@H](Cc2c[nH]c3ccccc23)C(=O)N1C [Example 5007] ({CH2CO}-Y[dA]NPHQ[Hyp]WKW[NMeNle][NMeNle]ECG-NH2; lactam 9-13; thioether N-14) | – | 14
5 | CCCC[C@H]1C(=O)N(C)[C@@H](CCCC)C(=O)N[C@H]2CCC(=O)NCCCC[C@H](NC(=O)[C@H](Cc3c[nH]c4ccccc34)NC(=O)[C@@H]3C[C@@H](O)CN3C(=O)[C@H](CC(C)C)NC(=O)[C@H](Cc3c[nH]cn3)NC(=O)[C@@H]3CCCN3C(=O)[C@H](CC(N)=O)NC(=O)[C@@H](C)NC(=O)[C@H](Cc3ccc(O)cc3)NC(=O)CSC[C@@H](C(=O)NCC(N)=O)NC2=O)C(=O)N[C@@H](Cc2c[nH]c3ccccc23)C(=O)N1C [Example 5008] ({CH2CO}-Y[dA]NPHL[Hyp]WKW[NMeNle][NMeNle]ECG-NH2; lactam 9-13; thioether N-14) | 3 to 9.9 | –
6 | CCCC[C@H]1C(=O)N(C)[C@@H](CCCC)C(=O)N[C@H]2CCCC[C@H](NC(=O)[C@H](Cc3c[nH]c4ccccc34)NC(=O)[C@@H]3CCCN3C(=O)[C@H](CC(C)C)NC(=O)[C@H](Cc3cnc[nH]3)NC(=O)[C@@H]3CCCN3C(=O)[C@H](CC(N)=O)NC(=O)[C@H](C)N(C)C(=O)[C@H](Cc3ccc(O)cc3)NC(=O)CSC[C@@H](C(=O)NCC(N)=O)NC2=O)C(=O)N[C@@H](Cc2c[nH]c3ccccc23)C(=O)N1C [Example 7156] | 10 to 99 | –
7 | CCCC[C@H]1C(=O)N(C)[C@@H](CCCC)C(=O)N[C@@H](CC(C)C)C(=O)N[C@H](C(=O)NCC(N)=O)CSCC(=O)N[C@@H](Cc2ccc(O)cc2)C(=O)N(C)[C@@H](C)C(=O)N[C@H]2CCC(=O)NC[C@H](NC(=O)[C@@H]3CCCN3C2=O)C(=O)N[C@@H](CC(C)C)C(=O)N2CCC[C@H]2C(=O)N[C@@H](Cc2c[nH]c3ccccc23)C(=O)N[C@@H](CO)C(=O)N[C@@H](Cc2c[nH]c3ccccc23)C(=O)N1C [Example 10500] | 100 to 1000 | –
8 | CCCC[C@H]1C(=O)N(C)[C@@H](CCCC)C(=O)N[C@@H](CC(C)C)C(=O)N[C@H](C(=O)NCC(N)=O)CSCC(=O)N[C@@H](Cc2ccc(O)cc2)C(=O)N(C)[C@@H](C)C(=O)N[C@H]2CCC(=O)NCCCC[C@H](NC(=O)[C@@H]3CCCN3C2=O)C(=O)N[C@@H](CC(C)C)C(=O)N2CCC[C@H]2C(=O)N[C@@H](Cc2c[nH]c3ccccc23)C(=O)N[C@@H](CO)C(=O)N[C@@H](Cc2c[nH]c3ccccc23)C(=O)N1C [Example 10501] | 100 to 1000 | –
9 | CCCC[C@H]1C(=O)N(C)[C@@H](CCCC)C(=O)N[C@@H](CC(C)C)C(=O)N[C@H](C(=O)NCC(N)=O)CSCC(=O)N[C@@H](Cc2ccc(O)cc2)C(=O)N(C)[C@@H](C)C(=O)N[C@H]2CCC(=O)NCC[C@H](NC(=O)[C@@H]3CCCN3C2=O)C(=O)N[C@@H](CC(C)C)C(=O)N2CCC[C@H]2C(=O)N[C@@H](Cc2c[nH]c3ccccc23)C(=O)N[C@@H](CO)C(=O)N[C@@H](Cc2c[nH]c3ccccc23)C(=O)N1C [Example 10503] | 100 to 1000 | –
